Experimental data published in ChEMBL document CHEMBL1134144, “Macrocyclization in the design of a conformationally constrained Grb2 SH2 domain inhibitor” (Bioorg Med Chem Lett, 2001).

Target: Growth factor receptor-bound protein 2 (Homo sapiens, UniProt P62993)
Experiment: Inhibition of Growth factor receptor bound protein 2 SH2 domain binding in ELISA

| IC50 [nM] | Structure (SMILES) |
| --- | --- |
| 55 | CC(=O)N[C@@H](Cc1ccc(CP(=O)(O)O)cc1)C(=O)NC1(C(=O)N[C@@H](CC(N)=O)C(=O)NCCCc2cccc3ccccc23)CCCCC1 |
| 20 | NC(=O)C[C@@H]1NC(=O)C2(CCCCC2)NC(=O)C[C@@H](c2ccc(CP(=O)(O)O)cc2)/C=C/C[C@@H](Cc2cccc3ccccc23)CNC1=O |
| 2000 | NC(=O)C[C@H](NC(=O)C1(NC(=O)CCc2ccc(CP(=O)(O)O)cc2)CCCCC1)C(=O)NCCCc1cccc2ccccc12 |
| 20 | NC(=O)C[C@H](NC(=O)C1(NC(=O)[C@H](Cc2ccc(CP(=O)(O)O)cc2)NC(=O)C(=O)O)CCCCC1)C(=O)NCCCc1cccc2ccccc12 |
